The results in this text go back to PubChem BioAssay (NCI).

What all share (assay): growth of human tumour cells (NCI), 48 h
The subject of assay [1] is HL-60(TB) leukemia.
Assay [2] concerns HOP-92 NSCLC.
Assay [3] relates to NCI-H226 lung.
For assay [4], the system named is OVCAR-4 ovarian.
Assay [5] has as its system SK-MEL-28 melanoma.
Assay [6] concerns SNB-75 CNS.
Assay [7] relates to UO-31 renal.

Molecules are shown by their SMILES.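 A five-concentration, 48-hour dose response in 96-well plates underlies each endpoint, interpolated linearly between surrounding concentrations. At the GI50, growth is halved. TGI: total growth inhibition.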

Take `CC1=NOC(=O)/C1=C/c1ccccc1O`: the TGI in assay [1], in assay [2], in assay [3], in assay [4], in assay [5] and in assay [6] was more than 100 µM throughout. The same compound displayed a TGI in assay [7] of more than 100 µM.
For the compound `c1cc(-c2cn3ccsc3n2)ccn1`, the TGI in assay [1] is more than 60.1 µM; in assay [2], more than 100 µM; in assay [3], more than 100 µM; in assay [4] it was more than 100 µM; in assay [5], more than 100 µM; in assay [6], more than 100 µM. Moreover, in assay [7], the TGI was more than 100 µM.
Consider `COCCN1C2=CCCCC2=Nc2c1nc(N)[nH]c2=O`, for which the TGI in assay [1], in assay [2], in assay [3], in assay [5], in assay [6] and in assay [7] was more than 100 µM each time.
Regarding `CN(C(=O)C12C3C4C5C3C1(C(=O)O)C5C42)C(C)(C)C` (stereo not given), the TGI in assay [1] is 32 µM; in assay [2] it was more than 100 µM; in assay [3], more than 100 µM; in assay [4], more than 100 µM; in assay [5] it was more than 100 µM; in assay [6], more than 100 µM. Moreover, the TGI in assay [7] is more than 100 µM.
For the compound `O=C(O)c1ccc([Se][Se]c2ccc(C(=O)O)cc2)cc1`, the TGI turned out to be 76.5 µM in assay [3]; 49.1 µM in assay [4]; 55.6 µM in assay [5]; 88.3 µM in assay [6]; 77.7 µM in assay [7].
`Cc1cccc(NC(=O)CC(=O)N2N=C(N(CCC#N)c3ccc(Cl)cc3)CC2c2ccccc2)c1` (stereo not given): the TGI in assay [1], in assay [2], in assay [4], in assay [5], in assay [6] and in assay [7] was more than 100 µM in each case.
As for `COC(=O)CCC1CCc2c(OC)ccc(O)c2C1=O` (stereo not given), the TGI in assay [1] is more than 100 µM; in assay [3], 84.1 µM; in assay [4], more than 100 µM; in assay [5] it was more than 100 µM; in assay [6], more than 100 µM; in assay [7], more than 100 µM.
`Cc1cc(N(CCC#N)S(=O)(=O)c2ccccc2)ccc1/C=C1N=C(/C=C/c2ccccc2)OC\1=O`: the TGI in assay [1], in assay [3], in assay [5], in assay [6] and in assay [7] was more than 100 µM throughout.
Take `CC(C)C(=O)Nc1nc2nc[nH]c2c(=O)[nH]1`: the TGI in assay [1], in assay [2], in assay [3], in assay [4], in assay [5] and in assay [6] was more than 100 µM each time. In assay [7], this compound returned a TGI of more than 100 µM.
For the compound `Cc1ccncc1.[O]=[Ge].[O]=[Ge].[O]=[Ge].[O]=[Ge].[O]=[Ge].[O]=[Ge][OH].[O]=[Ge][OH]`, the GI50 in assay [1], in assay [2], in assay [3], in assay [4], in assay [5] and in assay [6] was more than 100 µM in each case. Also, the GI50 in assay [7] was more than 100 µM. Further, the TGI in assay [1], in assay [2], in assay [3], in assay [4], in assay [5] and in assay [6] was more than 100 µM each time. The TGI in assay [7] was more than 100 µM.
With `N#C/C(=C1\OC(=O)C(c2ccc(Br)cc2)=C1O)c1ccc(Br)cc1`, the TGI in assay [1] was determined as 44.6 µM; in assay [2], 30 µM; in assay [3] it was 34 µM; in assay [4], 34.3 µM; in assay [5], 31.7 µM; in assay [6] it was 32.4 µM. Moreover, the TGI in assay [7] turned out to be 28.5 µM.
`O=c1c2c([nH]c3cc4c(cc13)OCO4)-c1ccccc1CC2`: the TGI in assay [1], in assay [3], in assay [4], in assay [5], in assay [6] and in assay [7] was more than 100 µM throughout.
As for `C=C1C(=O)O[C@H]2[C@H]1[C@H](OC(=O)/C(C)=C\C)CC(=C)[C@@H]1[C@H](O)[C@H]3O[C@@]3(C)[C@@]12O`, the TGI in assay [2], in assay [4], in assay [5], in assay [6] and in assay [7] was more than 100 µM in each case.
As for `O=C([O-])c1ccccc1Nc1ccccn1.O=C([O-])c1ccccc1Nc1ccccn1.[Ni+2]`, the GI50 in assay [2] was 37.1 µM; in assay [3], 33.9 µM; in assay [4], more than 100 µM; in assay [5], 58.9 µM; in assay [7], 48.9 µM. The TGI in assay [2] is 92.8 µM; in assay [3] it was more than 100 µM; in assay [4] it was more than 100 µM; in assay [5], more than 100 µM; in assay [7], more than 100 µM.
For `Cc1ccc(C(=O)O/N=C2/CCC/C2=C\c2ccccc2)cc1`, the TGI in assay [1], in assay [2], in assay [3], in assay [4], in assay [5] and in assay [6] was more than 100 µM each time. In addition, in assay [7], the TGI was more than 100 µM.
With `C=CCC1([C@H](C)[C@@H](OC(C)=O)c2cc(OC)c(OC)c(OC)c2)C[C@@H](OC)CCC1=O` (stereo not given in full), the TGI was 45 µM in assay [1]; more than 100 µM in assay [2]; 44.2 µM in assay [3]; 85.1 µM in assay [4]; 52.4 µM in assay [5]; 36 µM in assay [6].
Regarding `CC(=O)NNc1nc(C)c(C(=O)NNC(=O)C(=O)Nc2ccccc2C#N)s1`, the TGI in assay [1], in assay [2], in assay [3], in assay [4], in assay [5] and in assay [6] was more than 100 µM throughout. Further, the TGI in assay [7] was more than 100 µM.
Consider `CNS(=O)(=O)NN(C)S(=O)(=O)c1ccc(F)cc1`, for which the TGI in assay [1], in assay [2], in assay [3], in assay [4], in assay [5] and in assay [6] was more than 100 µM each time. This compound showed a TGI in assay [7] of more than 100 µM.
